In assay [1] the test system is leukocytes, neutrophils, and macrophages (M1/M2 macrophages). The experiment in a line: Mouse zymosan pleurisy model, flow cytometry of infiltrating cells. The assay is classed as in vivo, mice. Conditions: for inflammatory resolution (shift from M1 to M2): zymosan sterile inflammation, FIGS. 1-9. How it is done:
(§1) Zymosan is injected into the pleural cavities of mice in order to induce sterile inflammation. Infiltration of leukocytes, neutrophils, and macrophages are monitored at days 3 and 7 following injection. Detection of various cell types are identified according to the gating strategy outlined in Table 1 below.
In this model, injection of zymosan causes the recruitment of various waves of leukocytes, which are observed and recorded. Exudate volume increases to a maximum over a period of 24 hours, and neutrophils increase within 4 hours and reach a maximum by 48 hours. Lymphocytes of the adaptive immune system enter at a later stage, after three days, which is signaled by macrophages presenting antigens. A resolution phase is well documented in this model and is accompanied by decreased total macrophage number and transition into M2 phenotype.
In the studies, Compounds 1 and 2 were administered to the test subjects, and the effect the compounds had on infiltration of leukocytes, neutrophils, and macrophages was observed.
Similar tests were conducted with Compound 2, the results of which are illustrated in FIGS. 8 and 9. […] An additional test was carried out according to the same method. Mice were injected intraperitoneally with 1 mg Zymosan followed by 10 mg/kg Compound 1. Macrophage levels were recorded at injection, then at 4, 8, 16, 24, 48 and 72 hours post-injection.

Assay [2] has the same test system. The assay is described as above. The assay is classed as in vivo, mice. Conditions: 1 mg Zymosan i.p. followed by 10 mg/kg; day 7; FIG. 11A.
Assay [3] concerns metabolites of AA and DHA. The experiment in a line: Detection of arachidonic acid and docosahexaenoic acid metabolites in mouse zymosan pleurisy model. The assay is classed as in vivo, mice. How it is done:
Zymosan was injected into the pleural cavities of mice in order to induce sterile inflammation by the methods discussed in Example 1. Compound 1 was administered to test subjects to observe the effects on a variety of inflammatory biomarkers. Results were recorded after 4 hours. […] IFNγ, IL-1β, MCP1-β and TNF-α decreased following administration of Compound 1 in all serum and plasma samples.
Lipids are known to be involved in regulation of a multitude of cellular responses including cell growth and death, and inflammation/infection, via receptor-mediated pathways. Various lipids are involved in both the initiation and resolution of inflammation. Pro-resolving lipid mediators are produced naturally in the body from unsaturated fatty acids, such as arachidonic acid (AA) and docosahexaenoic acid (DHA). Further studies were carried out to identify metabolites of AA and DHA, which are summarized below in Tables 2 and 3.

In another assay the test system is BV2 cells. Nature of the assay: Microglia chemotaxis assay. The assay is classed as cell-based. The note with it: 100 μM ADP, 4 hours; FIG. 10. How it is done: BV2 cells were added to upper chamber of a 5 μm pore Transwell 96-well plate over a reservoir containing 100 μM ADP and incubated at 37° C. with 5% CO2 for 4 hours. After the incubation cells were harvested with pre-warmed cell detachment solution for 30 minutes in the same incubation conditions. 75 μl of this cell detachment solution was combined with 75 μl of culture medium in a new 96 well plate compatible with a fluorescence reader. Cell number in bottom chamber was determined by adding CyQuant® GR dye and reading in the Envision fluorescence reader at 480 nm EX/520 nm EM.

Assay [4] has as its system cytokine markers (IFNγ, IL-1β, MCP1-β, TNF-α, IL10, MCP-1/CCL2). The experiment in a line: Inflammatory cytokine biomarkers in mouse zymosan pleurisy model. The assay is classed as in vivo, mice. As to the method:
as §1
Zymosan was injected into the pleural cavities of mice in order to induce sterile inflammation by the methods discussed in Example 1. Compound 1 was administered to test subjects to observe the effects on a variety of inflammatory biomarkers. […] IFNγ, IL-1β, MCP1-β and TNF-α decreased following administration of Compound 1 in all serum and plasma samples.

Setting [5] is: arachidonic acid metabolite, compared with controls.
Where [6] appears, read: docosahexaenoic acid metabolite.
[7] abbreviates: after 4 hours, serum and plasma samples.

SMILES strings stand for the structures.

Take `CN1C(=O)c2c(nn(Cc3ccc(-c4ccccn4)cc3)c2Nc2ccccc2)N2C1=N[C@@H]1CCC[C@@H]12` [Compound 2]: in assay [1] (3 mg/kg, day 7, FIG. 8), the “CD38+ macrophages” value is listed as “significant drop”. Besides, in assay [1] (3 mg/kg, day 7, FIG. 9), the “Erg2+ macrophages” value was “sharp and significant increase”. The “inflammatory resolution (shift from M1 to M2)” value in assay [1] is recorded as “enhanced inflammatory resolution”.

As to `C[C@@H]1C[C@H]2[C@@H]3CCC4=CC(=O)C=C[C@]4(C)[C@@]3(F)[C@@H](O)C[C@]2(C)[C@@]1(O)C(=O)CO` [Dexamethasone, reference compound], the “number of CD38+ macrophage populations” value in assay [1] (2 mg/kg, day 3 or 7, FIG. 8) is “no significant effect”. The “number of Erg2+ macrophage populations” value in assay [1] (2 mg/kg, day 3 or 7, FIG. 9) is reported as “no significant effect”.

`CN1C(=O)c2c(nn(Cc3ccc(-c4cccc(F)n4)cc3)c2Nc2ccccc2)N2C1=N[C@@H]1CCC[C@@H]12` [Compound 1]: the “Arg1+ M2 macrophages” value in assay [1] (1 mg Zymosan i.p. followed by 10 mg/kg, 4 hours, FIG. 12A) was “increased”. Further, the M1 macrophage levels entry in assay [1] (1 mg Zymosan i.p. followed by 10 mg/kg, all observed times, FIGS. 11A, 11B) is reported as “lower M1 macrophage levels”. Further, in assay [1] (1 mg Zymosan i.p. followed by 10 mg/kg, relative to control at 2 and 3 days), the “CD206+ M2 macrophages” value was “significantly increased”. The “MFI for CD38+ on macrophages” value in assay [1] (day 3, among all animal groups, FIG. 6A) was “lowest value”. Moreover, the “total numbers of CD38+ macrophages” value in assay [1] (day 3, FIG. 5A) was “decreased”. Besides, the number of neutrophils result in assay [1] (day 7, compared with disease only and vehicle animals, FIG. 3A) is given as “less dramatic decrease”. In assay [1], the “inflammatory resolution (shift from M1 to M2)” value is on record as “enhanced inflammatory resolution”. Further, the “CD80+ macrophages (M1), difference to control” value in assay [2] is “significant different”. In assay [3] (setting [5]), the “5-HETE (intermediate mediator linked to resolution)” value is on record as “No change”, the “12-HETE (intermediate mediator linked to resolution)” value is “Increase”, the “15-HETE (intermediate mediator linked to resolution)” value was “Increase” and the “LTB4 (pro-inflammatory mediator)” value was “No change”. Besides, in assay [3] (setting [5]), the “PGE2 (pro-inflammatory mediator)” value is given as “Decrease” and the “TXB2 (pro-inflammatory mediator)” value is listed as “Decrease”. For the same compound, in assay [3] (setting [6]), the “14-HDOHE (resolution mediator)” value is “Increase”, the “17-HDOHE (intermediate mediator linked to resolution)” value is “Increase” and the “RVD5 (intermediate mediator linked to resolution)” value is recorded as “Increase”. Moreover, the “motility of the BV2 cells across the membrane” value with BV2 cells was “marked dampening effect”. Moreover, the IL10 result in assay [4] (after 4 hours, serum) is given as “decrease”. For the same compound, in assay [4] (setting [7]), the IFNγ entry was “decreased”, the IL-1β entry is reported as “decreased”, the MCP1-β entry was “decreased” and the TNF-α entry is recorded as “decreased”. Also, in assay [4] (plasma, at 3 and 7 days, in comparison with control groups, FIG. 7), the “inflammatory biomarkers (MCP-1/CCL2)” value is listed as “less inflammatory biomarkers”.

(Values after patent publication US20210338679A1, “NOVEL USES” (INTRA-CELLULAR THERAPIES, INC., priority 2018, published 2021).)
